{"source": "patent US9518085B2", "about": "“Compounds and pharmaceutical combinations for the treatment of neurodegenerative and ischemic brain diseases” (CENTRO DE INGENIERÍA GENÉTICA Y BIOTECHNOLOGÍA, priority 2011, dated 2016)", "key": {"[1]": {"system": "brain I/R model in Mongolian gerbils", "experiment": "Brain infarct volume in the bilateral ischemia-reperfusion (I/R) model, transient CCA occlusion", "type": "in vivo", "details": "24 h after 10 min CCA occlusion, PCB 750 μg/Kg ip, PCB-aa 3.375 mg/kg, alone or combined", "procedure": "The animals were treated with saline solution or with an accumulative dose of the PCB-aa peptides (3.375 mg/kg of each one), by intraperitoneal route for 30 min, 3, 6 and 12 h after the ischemic event.\nThe effectiveness percentage of each treatment was calculated according to the following formula: effectiveness %=(1−Vi/VI/R)×100. Vi: infarct volume of the ischemic group treated with the corresponding product; VI/R: volume of the infarct of the ischemic group treated with saline solution.\nThe percentage of effectiveness was calculated as described in Example 3.\nThe animals were treated with a saline solution (through the intraperitoneal route) or with an accumulative dose of PCB (750 μg/Kg, by the intraperitoneal route), PCB-aa (peptide 4) 3.375 mg/kg, EPO (500 U/Kg, through the intraperitoneal route), asyaloEPO (200 U/Kg, through the nasal route) or with PCB/EPO or PCB-aa (peptide 4)/EPO, PCB/asyaloEPO and PCB-aa ([…])/asyaloEPO (maintaining the dose and the corresponding administration route) for 30 min, 3, 6 and 12 h after the ischemic event.\nThe evaluation of the therapeutic effect of the combinations and their independent components was carried out. The percentage of effectiveness of each treatment was calculated as described in Example 3."}, "[2]": {"system": "hippocampus (C2, CA3, CA4 regions) of Mongolian gerbils, I/R model", "experiment": "Morphometric evaluation, bilateral hippocampal cell count after transient CCA occlusion", "type": "in vivo", "details": "750 μg/Kg ip, GHRP-6 6.25 μg/kg ip, alone or combined; 30 min, 3, 6, 12 h after ischemic event", "procedure": "FIG. 8. Morphometric evaluation of the therapeutic effect with PCB-aa (peptide 3), the GHRP-6 peptide, or its combination in Mongolian gerbils submitted to transient (10 min) occlusion of CCA. A: representative images (4× magnification) of the left hippocampus of animals that underwent fake surgery (sham), or treated with saline solution, or with PCB-aa (peptide 3) and GHRP-6 (6.25 μg/kg, intraperitoneal route), or with PCB-aa (peptide 3)/GHRP-6 (maintaining the corresponding doses and administration routes) for 30 min, 3, 6 and 12 h after the ischemic event. B: bilateral cell count performed in the C2, CA3 and CA4 regions of both hippocampi for each experimental group. Different letters indicate significant differences with respect to the I/R+saline group, *p<0.05. The values presented in the graphs are means±MSE\nThe morphometric evaluations of the therapeutic treatment with PCB-aa (peptide 3), the GHRP-6 peptide or its combinations were tested in Mongolian gerbils submitted to transient (10 min) CCAs occlusion. Accumulative doses of PCB-aa (peptide 3) (750 μg/Kg, by intraperitoneal route), GHRP-6 (6.25 μg/kg, intraperitoneal route), or with PCB-aa (peptide 3)/GHRP-6 (maintaining the corresponding dose and administration route) for 30 min, 3, 6 and 12 h after the ischemic event were evaluated. The bilateral cell count was performed in the C2, CA3 and CA4 regions for each experimental group and it was expressed in percentage with respect to the sham (negative or fake surgery) group."}, "PC12 cell line": {"system": "PC12 cell line", "experiment": "Neuroprotector effect against Sodium glutamate induced damage in PC12 cells (MTT cell viability)", "type": "cell-based", "details": "for concentration needed to attain cell viability similar to C-Phyco: PC12, 24 h pretreatment, 4 h co-incubation with Sodium glutamate, MTT; for cells protected from the damage: Sodium glutamate damage, PC12", "procedure": "FIG. 2. In vitro study of the neuroprotector effect of C-Phycocyanin (C-Phyco) (A) and of PCB and PCB-aa (B) against the Sodium glutamate (50 mM) induced damage in the neuronal line PC12. The symbols indicate the presence (+), absence (−) or concentrations of the respective compounds in the culture medium. Different letters indicate statistically significant difference, according to ANOVA followed by the Newman-Keuls multiple comparison test, p<0.05. The values presented in the graphs are the means±standard error of the mean (MSE).\nPC12 cells (1.5×10^4 cells/well) were pretreated with C-Phyco (25, 50 μM) or PCB (0.5; 1; 5 μM) or PCB-aa (0.25; 1; 2 μM), during 24 h, and then submitted to co-incubation with […] Sodium glutamate together with the corresponding product (different doses) for 4 h."}, "[3]": {"system": "experimental autoinmune encephalomyelitis (EAE) model", "experiment": "EAE model, prophylactic schedule, clinical index", "type": "in vivo, C57BL6 mice", "details": "PCB-aa 3.375 mg/Kg, PCB 750 μg/Kg, alone or combined", "procedure": "(§1) In the prophylactic schedule the treatment was performed 15 days before EAE induction and in the therapeutic schedule starting from the beginning of the clinical signs."}, "[4]": {"system": "model of brain damage in rats induced by kainic acid", "details": "one 100 mg/kg dose; cited from earlier work"}, "COX-2": {"target": "T1, COX-2 (Homo sapiens, UniProt P35354)", "T1 sequence (P35354 18-604)": "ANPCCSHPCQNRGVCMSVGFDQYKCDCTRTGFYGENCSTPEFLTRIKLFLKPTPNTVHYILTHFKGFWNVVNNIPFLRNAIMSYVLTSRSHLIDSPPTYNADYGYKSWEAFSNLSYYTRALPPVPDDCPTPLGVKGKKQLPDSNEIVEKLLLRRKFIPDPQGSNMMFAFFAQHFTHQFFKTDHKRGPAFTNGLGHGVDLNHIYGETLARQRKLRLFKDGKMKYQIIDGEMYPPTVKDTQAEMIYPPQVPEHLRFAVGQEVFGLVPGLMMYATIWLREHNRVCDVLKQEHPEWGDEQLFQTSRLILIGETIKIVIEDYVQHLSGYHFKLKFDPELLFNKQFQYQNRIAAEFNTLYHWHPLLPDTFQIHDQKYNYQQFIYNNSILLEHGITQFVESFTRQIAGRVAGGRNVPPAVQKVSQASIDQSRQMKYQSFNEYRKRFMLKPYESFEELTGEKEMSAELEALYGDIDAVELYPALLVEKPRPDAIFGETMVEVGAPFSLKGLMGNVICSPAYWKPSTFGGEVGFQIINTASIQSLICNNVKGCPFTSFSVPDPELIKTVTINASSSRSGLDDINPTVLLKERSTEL", "details": "isolated enzyme; complete blood assay; cited from earlier work"}, "[5]": {"system": "culture of brain granulous cells", "details": "1-3 mg/mL, absence of potassium and serum for 24 h; cited from earlier work"}, "[6]": {"system": "swollen paw models in mice and rats", "details": "oral route, 100-200 mg/kg; cited from earlier work"}, "EAE model": {"system": "EAE model", "experiment": "EAE model, therapeutic schedule, clinical course (area under the curve)", "type": "in vivo, C57BL6 mice", "details": "PCB 750 μg/kg ip, PCB-aa 3.375 mg/kg ip daily 15 days, IFN-b 500 ng/Kg sc 6 doses, alone or combined", "procedure": "The percentage of effectiveness of each treatment was calculated according to the following formula: % of effectiveness=(1−ACi/ACEAE)×100. ACi: area under the curve of the group treated with the corresponding product; ACEAE: area under the curve of the EAE group.\nas §1"}, "[7]": {"details": "EPO 500 U/Kg ip, asyaloEPO 200 U/Kg nasal"}, "[8]": {"details": "IFN-a/IFN-b 500 ng/Kg sc, 30 min, 3, 6, 12 h after ischemic event"}}, "note": "No end group written: not given here.", "data": [{"substance": "^82BLR^84 (Cys(phycocyanobilin)-Leu-Arg; listed as Spirulina platensis) [PCB-aa (peptide 4), chromogenic peptide of β-C-Phyco]", "values": [{"measurement": "effectiveness, reduction of brain infarct volume", "setting": "[1]; [7]", "result": 49.2, "unit": "%"}]}, {"substance": "GHRP-6 [reference compound]", "values": [{"measurement": "effectiveness, bilateral hippocampal cell count", "setting": "[2]", "result": 36.1, "unit": "%"}]}, {"substance": "^79MAABLR^84 (MAAC(phycocyanobilin)LR; listed as Spirulina platensis) [PCB-aa (peptide 1), chromogenic peptide of β-C-Phyco]", "values": [{"measurement": "effectiveness, reduction of brain infarct volume", "setting": "[1]; [8]", "result": 49.2, "unit": "%"}, {"measurement": "concentration needed to attain cell viability similar to C-Phyco", "setting": "PC12 cell line", "result": "even lower"}, {"measurement": "Clinical score (Mean ± SD)", "setting": "[3]; Table 1, IFN-a 500 ng/Kg", "result": "1.23 ± 1.1"}, {"measurement": "Days of the disease", "setting": "[3]; Table 1, IFN-a 500 ng/Kg", "result": "7.2 ± 0.3", "unit": "days"}, {"measurement": "Incidence (%)", "setting": "[3]; Table 1, IFN-a 500 ng/Kg", "result": 75, "unit": "%"}, {"measurement": "Starting Day (Mean ± SD)", "setting": "[3]; Table 1, IFN-a 500 ng/Kg", "result": "9.5 ± 0.2"}, {"measurement": "Clinical score (Mean ± SD)", "setting": "[3]; Table 2, IFN-b 500 ng/Kg", "result": "1.23 ± 1.1"}, {"measurement": "Days of the disease", "setting": "[3]; Table 2, IFN-b 500 ng/Kg", "result": "7.2 ± 0.3", "unit": "days"}, {"measurement": "Incidence (%)", "setting": "[3]; Table 2, IFN-b 500 ng/Kg", "result": 70, "unit": "%"}, {"measurement": "Starting day (Mean ± DS)", "setting": "[3]; Table 2, IFN-b 500 ng/Kg", "result": "9.5 ± 0.2"}]}, {"substance": "C-Phycocyanin", "values": [{"measurement": "signs and alterations versus untreated control group", "setting": "[4]", "result": "reduced the signs"}, {"measurement": "cells protected from the damage", "setting": "PC12 cell line; 50 μM C-Phyco", "result": "around 75%"}, {"measurement": "COX-2 inhibition", "setting": "COX-2", "result": "inhibits COX-2"}, {"measurement": "neuron death", "setting": "[5]", "result": "prevents neuron death"}, {"measurement": "edema", "setting": "[6]", "result": "able to reduce edemas"}]}, {"substance": "^80AABLR^84 (AAC(phycocyanobilin)LR; listed as Spirulina platensis) [PCB-aa (peptide 3), chromogenic peptide of β-C-Phyco]", "values": [{"measurement": "effectiveness, bilateral hippocampal cell count", "setting": "[2]", "result": 35.8, "unit": "%"}]}, {"substance": "Phycocyanobilin [PCB]", "values": [{"measurement": "effectiveness, bilateral hippocampal cell count", "setting": "[2]", "result": 35.8, "unit": "%"}, {"measurement": "effectiveness, reduction of brain infarct volume", "setting": "[1]; [7]", "result": 43.1, "unit": "%"}, {"measurement": "effectiveness, reduction of brain infarct volume", "setting": "[1]; [8]", "result": 43.1, "unit": "%"}, {"measurement": "effectiveness, reduction of brain infarct volume", "setting": "[1]; IL-2 100 ng/Kg sc", "result": 43.1, "unit": "%"}, {"measurement": "% of effectiveness (area under the curve of clinical index)", "setting": "EAE model", "result": 46.1, "unit": "%"}, {"measurement": "cells protected from the damage", "setting": "PC12 cell line; 5 μM PCB", "result": 100, "unit": "%"}, {"measurement": "concentration needed to attain cell viability similar to C-Phyco", "setting": "PC12 cell line", "result": "lower concentrations"}, {"measurement": "protective molar concentration, times lower than C-Phyco", "setting": "PC12 cell line; PC12, Sodium glutamate damage", "result": 10, "unit": "times"}, {"measurement": "Clinical score (Mean ± SD)", "setting": "[3]; Table 1, IFN-a 500 ng/Kg", "result": "1.37 ± 1.7"}, {"measurement": "Days of the disease", "setting": "[3]; Table 1, IFN-a 500 ng/Kg", "result": "8.5 ± 0.1", "unit": "days"}, {"measurement": "Incidence (%)", "setting": "[3]; Table 1, IFN-a 500 ng/Kg", "result": 70, "unit": "%"}, {"measurement": "Starting Day (Mean ± SD)", "setting": "[3]; Table 1, IFN-a 500 ng/Kg", "result": "10.5 ± 0.5"}, {"measurement": "Clinical score (Mean ± SD)", "setting": "[3]; Table 2, IFN-b 500 ng/Kg", "result": "1.55 ± 0.3"}, {"measurement": "Days of the disease", "setting": "[3]; Table 2, IFN-b 500 ng/Kg", "result": "7.3 ± 0.4", "unit": "days"}, {"measurement": "Incidence (%)", "setting": "[3]; Table 2, IFN-b 500 ng/Kg", "result": 60, "unit": "%"}, {"measurement": "Starting day (Mean ± DS)", "setting": "[3]; Table 2, IFN-b 500 ng/Kg", "result": "12.3 ± 0.1"}]}, {"substance": "^84BAR^86 (Cys(phycocyanobilin)-Ala-Arg; listed as Spirulina platensis) [PCB-aa (peptide 2), chromogenic peptide of α-C-Phyco]", "values": [{"measurement": "effectiveness, reduction of brain infarct volume", "setting": "[1]; IL-2 100 ng/Kg sc", "result": 49.2, "unit": "%"}]}]}
